Source: paper PMC12731232, “Microbial Biotransformation of the Sesquiterpene Carotol: Generation of Hydroxylated Metabolites with Potential Cytotoxic and Target-Specific Binding Activities” (Biomolecules, 2025)
Values after ≈ are worked out from the molar mass of the structure shown.

Tests used:
[1] = test system: MCF-7 (breast carcinoma); assay: MTT cell viability assay, MCF-7; settings: for IC50: Homo sapiens, MCF7, 24 h, read-out: Cytotoxic activity IC50 ± SD; for Selectivity index (SI): SI = CC50(MRC-5)/IC50(MCF-7)
Protocol: (§1) The assay was conducted at the Regional Center for Mycology and Biotechnology, Al-Azhar University, Cairo, Egypt.
(§2) Cancer and normal cells were seeded into 96-well plates at a density of 5 × 10^4 cells per well and incubated for 24 h prior to treatment. Test compounds, dissolved in 0.5% DMSO, were added in triplicate at twelve different concentrations. Vehicle controls (media only or media containing 0.5% DMSO) were included. After a 24 h incubation period, cell viability was assessed via the MTT assay.
(§3) Briefly, the media were replaced with 100 µL of fresh RPMI-1640 medium, followed by the addition of 10 µL of a 12 mM MTT stock solution (5 mg/mL in PBS) to each well, including untreated controls. Plates were incubated at 37 °C in a 5% CO2 atmosphere for 4 h. Subsequently, 85 µL of medium was removed from each well, and 50 µL of DMSO was added to dissolve the resulting formazan crystals. The plates were thoroughly mixed and incubated for an additional 10 min at 37 °C. Absorbance was measured at 590 nm using a microplate reader (SunRise, TECAN Inc., Morrisville, NC, USA). Cell viability percentages were calculated, and IC50 values (µM) were determined from dose–response curves using GraphPad Prism 10 software (San Diego, CA, USA) [38].

[2] = test system: HepG-2 (hepatocellular carcinoma); assay: MTT cell viability assay, HepG-2; settings: for IC50: Homo sapiens, HepG2, 24 h, read-out: Cytotoxic activity IC50 ± SD; for Selectivity index (SI): SI = CC50(MRC-5)/IC50(HepG-2)
Protocol: as §1, §2, §3

[3] = test system: A-549 (lung carcinoma); assay: MTT cell viability assay, A-549; settings: for IC50: Homo sapiens, A549, 24 h, read-out: Cytotoxic activity IC50 ± SD; for Selectivity index (SI): SI = CC50(MRC-5)/IC50(A-549)
Protocol: as §1, §2, §3

[4] = test system: HCT-116 (colon carcinoma); assay: MTT cell viability assay, HCT-116; settings: for IC50: Homo sapiens, HCT-116, 24 h, read-out: Cytotoxic activity IC50 ± SD; for Selectivity index (SI): SI = CC50(MRC-5)/IC50(HCT-116)
Protocol: as §1, §2, §3

[5] = in vitro; settings: human
Protocol: as §1, §2, §3

[6] = Substrate control stability in sterile fermentation medium; assay type: physicochemical; settings: without microorganisms
Protocol: Control groups included a substrate control, in which sterile medium containing carotol (5 mg/100 µL DMF) was incubated without microorganisms. […] Culture controls consisted of microorganisms grown under identical conditions to the screening cultures but without carotol. After two weeks of incubation, all cultures were harvested and analyzed by thin-layer chromatography.

[7] = test system: green monkey kidney epithelial cells (VERO); parameters: method as in doi:10.1016/j.indcrop.2016.08.001; settings: cited from earlier work
[8] = test system: human hypopharyngeal squamous cell carcinoma cells (FaDu); parameters: method as in doi:10.1016/j.indcrop.2016.08.001; settings: cited from earlier work
[9] = MTT cell viability assay, MRC-5; settings: human, MRC-5 normal lung fibroblasts
Protocol: as §1, §2, §3

IC50 at 24 h [5] [µM] | Stability of substrate control ([6]; 5 °C, two weeks) | Stability of substrate control ([6]; room temperature (25–30 °C)) | Compound | IC50 [1] [µM] | Selectivity index (SI) [1] | IC50 [2] [µM] | Selectivity index (SI) [2] | IC50 [3] [µM] | Selectivity index (SI) [3] | IC50 [4] [µM] | Selectivity index (SI) [4] | IC50 [7] [mg/L] | IC50 [8] [mg/L] | IC50 at 24 h [9] [µM]
466 ± 20.3 | – | – | CC(C)C1C(O)CC2(C)CC(O)C3(C)CCC12O3 (stereo not drawn) [CM1, 9α-hydroxydaucol] | 401 ± 20.3 | 1.16 | 221 ± 12.3 | 2.11 | 225 ± 13.4 | 2.07 | 339 ± 15.6 | 1.37 | – | – | –
248 ± 11.2 | – | – | CC(C)(O)[C@H]1[C@@H](O)C[C@]2(C)C[C@H](O)[C@]3(C)CC[C@]12O3 [CM2, 9α,13-dihydroxydaucol] | 213 ± 13.7 | 1.16 | 154 ± 9.39 | 1.60 | 138 ± 9.2 | 1.79 | 181 ± 9.95 | 1.37 | – | – | –
316 ± 15.2 | – | – | CC(C)[C@H]1CC[C@]2(C)C[C@H](O)[C@@](C)(O)CC[C@]12O [CM3] | 242 ± 15.7 | 1.31 | 196 ± 10.6 | 1.62 | 205 ± 10.6 | 1.54 | 226 ± 11 | 1.40 | – | – | –
176 ± 10.9 | remained fully stable | slight decomposition | CC1=CC[C@@]2(C)CC[C@H](C(C)C)[C@@]2(O)CC1 [Carotol] | 68.4 ± 6.04 | 2.57 | 52.3 ± 4.23 | 3.36 | 28.7 ± 2.75 | 6.14 | 25.7 ± 0.53 | 6.85 | 39.7 (≈ 179 µM) | 38.3 (≈ 172 µM) | –
– | – | – | COc1cccc2c1C(=O)c1c(O)c3c(c(O)c1C2=O)C[C@@](O)(C(=O)CO)C[C@@H]3O[C@H]1C[C@H](N)[C@H](O)[C@H](C)O1 [Doxorubicin, doxorubicin, reference compound] | 3.07 ± 0.18 | 14.31 | 1.27 ± 0.2 | 34.62 | 3.31 ± 0.26 | – | 2.99 ± 0.22 | 14.66 | – | – | 44 ± 3.24
